Results reported in patent US12281122B1, “PI3K inhibitors” (Cogent Biosciences, Inc., priority 2023, dated 2025).

Tests used:
[1] = test system: SKBR3 (PI3Kα-Wild Type) cell line; experiment: HTRF phospho-AKT(S473) cell assay in SKBR3 cells; assay type: cell-based, human; conditions: Homo sapiens, SK-BR-3, 2 hours compound incubation, PDGF-BB stimulated
Procedure, shortened: (§1)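 Cells plated overnight (T47D in RPMI/10% FBS/0.2 units/mL insulin; SKBR3 in McCoy's 5A/10% FBS), then given 12-point 1:3 compound series (top 5 μM T47D, 10 μM SKBR3; ≤0.5% DMSO) for 2 h at 37° C. SKBR3 stimulated with 70 ng/ml PDGF-BB for final 15 min. Lysate pAKT(S473) by HTRF; IC50 calculated.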

[2] = test system: T47D (PI3Kα-H1047R) cell line; experiment: HTRF phospho-AKT(S473) cell assay in T47D cells; assay type: cell-based, human; conditions: Homo sapiens, 2 hours compound incubation
Procedure, shortened: as §1

[3] = HTRF phospho-AKT(S473), SKBR3 (PI3Kα-Wild Type) cells
[4] = HTRF phospho-AKT(S473), T47D (PI3Kα-H1047R) cells
[5] = SKBR3 (PI3Kα-Wild Type) cells, HTRF phospho-AKT(S473)
[6] = T47D (PI3Kα-H1047R) cells, HTRF phospho-AKT(S473)

Compound	IC50 [1, 3]	IC50 [2, 4]	further results
Cc1cc([C@@H](C)Nc2ccc(Cl)nc2C(=O)NS(C)(=O)=O)c2nc(N3C[C@@H]4[C@H](C3)[C@H]4n3ccc(C)n3)n(C)c(=O)c2c1 [Compound 416, 6-chloro-3-(((R)-1-(3,6-dimethyl-2-((1R,5S,6S)-6-(3-methyl-1H-pyrazol-1-yl)-3-azabicyclo[3.1.0]hexan-3-yl)-4-oxo-3,4-dihydroquinazolin-8-yl)ethyl)amino)-N-(methylsulfonyl) picolinamide]			IC50 [1, 5]: 1000 to 5000 nM; IC50 [2, 6]: < 250 nM
Cc1cc([C@@H](C)Nc2ccc(Cl)nc2C(=O)NS(C)(=O)=O)c2nc(N3C[C@@H]4C[C@]4(c4cnc(C)cn4)C3)n(C)c(=O)c2c1 (relative stereo) [Compound 750, 6-chloro-3-(((R)-1-(3,6-dimethyl-2-((1R*,5R*)-1-(5-methylpyrazin-2-yl)-3-azabicyclo[3.1.0]hexan-3-yl)-4-oxo-3,4-dihydroquinazolin-8-yl)ethyl)amino)-N-(methylsulfonyl) picolinamide]	≥ 5000 nM	250 to 500 nM	
Cc1cc([C@@H](C)Nc2ccc(Cl)nc2C(=O)NS(C)(=O)=O)c2nc(N3CCN(c4cc(C)n(C)n4)CC3)n(C)c(=O)c2c1 [Compound 634, (R)-6-chloro-3-((1-(2-(4-(1,5-dimethyl-1H-pyrazol-3-yl)piperazin-1-yl)-3,6-dimethyl-4-oxo-3,4-dihydroquinazolin-8-yl)ethyl)amino)-N-(methylsulfonyl) picolinamide]	≥ 5000 nM	< 250 nM	
Cc1cc([C@@H](C)Nc2ccc(Cl)nc2C(=O)NS(C)(=O)=O)c2nc(N3CCN(c4ncccn4)CC3)n(C)c(=O)c2c1 [Compound 169, (R)-6-chloro-3-((1-(3,6-dimethyl-4-oxo-2-(4-(pyrimidin-2-yl)piperazin-1-yl)-3,4-dihydroquinazolin-8-yl)ethyl)amino)-N-(methylsulfonyl) picolinamide]			IC50 [1, 5]: 1000 to 5000 nM; IC50 [2, 6]: < 250 nM
Cc1cnc([C@H]2CCCN(c3nc4c([C@@H](C)Nc5ccc(Cl)nc5C(=O)NS(C)(=O)=O)cc(C)cc4c(=O)n3C)C2)nc1 (relative stereo) [Compound 621, 6-chloro-3-(((R)-1-(3,6-dimethyl-2-((R*)-3-(5-methylpyrimidin-2-yl)piperidin-1-yl)-4-oxo-3,4-dihydroquinazolin-8-yl)ethyl)amino)-N-(methylsulfonyl) picolinamide]	≥ 5000 nM	500 to 1000 nM	
Cc1cc([C@@H](C)Nc2ccc(Cl)nc2C(=O)NS(C)(=O)=O)c2nc([C@H]3[C@@H]4CN(c5ccnc(C)n5)C[C@@H]43)n(C)c(=O)c2c1 [Compound 853, 6-chloro-3-(((R)-1-(3,6-dimethyl-2-((1R,5S,6r)-3-(2-methylpyrimidin-4-yl)-3-azabicyclo[3.1.0]hexan-6-yl)-4-oxo-3,4-dihydroquinazolin-8-yl)ethyl)amino)-N-(methylsulfonyl) picolinamide]			IC50 ([1]; SKBR3 (PI3Kα-Wild Type) cell line, phospho-AKT(S473) HTRF): ≥ 5000 nM; IC50 ([2]; T47D (PI3Kα-H1047R) cell line, phospho-AKT(S473) HTRF): 250 to 500 nM
Cc1cc([C@@H](C)Nc2ccc(Cl)nc2C(=O)NS(C)(=O)=O)c2nc(N3C[C@@H]4[C@H](C3)[C@H]4c3cc4n(n3)CCC4)n(C)c(=O)c2c1 [Compound 477, 6-chloro-3-(((R)-1-(2-((1R,5S,6R)-6-(5,6-dihydro-4H-pyrrolo[1,2-b]pyrazol-2-yl)-3-azabicyclo[3.1.0]hexan-3-yl)-3,6-dimethyl-4-oxo-3,4-dihydroquinazolin-8-yl)ethyl)amino)-N-(methylsulfonyl) picolinamide]	1000 to 5000 nM	< 250 nM	
Cc1cc([C@@H](C)Nc2ccc(Cl)nc2C(=O)NS(C)(=O)=O)c2nc(N3CCC(C)(c4cc[nH]n4)CC3)n(C)c(=O)c2c1 [Compound 552, (R)-6-chloro-3-((1-(3,6-dimethyl-2-(4-methyl-4-(1H-pyrazol-3-yl)piperidin-1-yl)-4-oxo-3,4-dihydroquinazolin-8-yl)ethyl)amino)-N-(methylsulfonyl) picolinamide]	≥ 5000 nM	250 to 500 nM	
Cc1cc([C@@H](C)Nc2ccc(Cl)nc2C(=O)NS(C)(=O)=O)c2nc(N3C[C@@H]4C[C@H]3C[C@@H]4c3ccn(C)n3)n(C)c(=O)c2c1 (relative stereo) [Compound 356, 6-chloro-3-(((R)-1-(3,6-dimethyl-2-((1R*,4S*,5R*)-5-(1-methyl-1H-pyrazol-3-yl)-2-azabicyclo[2.2.1]heptan-2-yl)-4-oxo-3,4-dihydroquinazolin-8-yl)ethyl)amino)-N-(methylsulfonyl) picolinamide]			IC50 [1, 5]: 1000 to 5000 nM; IC50 [2, 6]: < 250 nM

Now from value to compound, other results behind:

IC50 [1, 3]	IC50 [2, 4]	Compound	further results
1000 to 5000 nM	< 250 nM	Cc1cc([C@@H](C)Nc2ccc(Cl)nc2C(=O)NS(C)(=O)=O)c2nc(-c3ccc4c(cnn4CC(F)(F)F)c3)n(C)c(=O)c2c1 [Compound 783, (R)-6-chloro-3-((1-(3,6-dimethyl-4-oxo-2-(1-(2,2,2-trifluoroethyl)-1H-indazol-5-yl)-3,4-dihydroquinazolin-8-yl)ethyl)amino)-N-(methylsulfonyl) picolinamide]	
1000 to 5000 nM	< 250 nM	Cc1cc([C@@H](C)Nc2ccc(Cl)nc2C(=O)NS(C)(=O)=O)c2nc(N3CCC(c4cnc(C)o4)CC3)n(C)c(=O)c2c1 [Compound 521, (R)-6-chloro-3-((1-(3,6-dimethyl-2-(4-(2-methyloxazol-5-yl)piperidin-1-yl)-4-oxo-3,4-dihydroquinazolin-8-yl)ethyl)amino)-N-(methylsulfonyl) picolinamide]	
1000 to 5000 nM	< 250 nM	Cc1cc([C@@H](C)Nc2ccc(Cl)nc2C(=O)NS(C)(=O)=O)c2nc(-c3ccc4nn(C5COC5)cc4c3)n(C)c(=O)c2c1 [Compound 792, (R)-6-chloro-3-((1-(3,6-dimethyl-2-(2-(oxetan-3-yl)-2H-indazol-5-yl)-4-oxo-3,4-dihydroquinazolin-8-yl)ethyl)amino)-N-(methylsulfonyl) picolinamide]	
1000 to 5000 nM	< 250 nM	Cc1cc([C@@H](C)Nc2ccc(Cl)nc2C(=O)NS(C)(=O)=O)c2nc(-c3ccc4nn(C)cc4c3)n(C)c(=O)c2c1 [Compound 775, (R)-6-chloro-3-((1-(3,6-dimethyl-2-(2-methyl-2H-indazol-5-yl)-4-oxo-3,4-dihydroquinazolin-8-yl)ethyl)amino)-N-(methylsulfonyl) picolinamide]	
1000 to 5000 nM	< 250 nM	COCCn1ncc2cc(-c3nc4c([C@@H](C)Nc5ccc(Cl)nc5C(=O)NS(C)(=O)=O)cc(C)cc4c(=O)n3C)ccc21 [Compound 791, (R)-6-chloro-3-((1-(2-(1-(2-methoxyethyl)-1H-indazol-5-yl)-3,6-dimethyl-4-oxo-3,4-dihydroquinazolin-8-yl)ethyl)amino)-N-(methylsulfonyl) picolinamide]	
1000 to 5000 nM	250 to 500 nM	Cc1cc([C@@H](C)Nc2ccc(Cl)nc2C(=O)NS(C)(=O)=O)c2nc(N3CC[C@H](Oc4cnc(C)nc4)C3)n(C)c(=O)c2c1 [Compound 512, 6-chloro-3-(((R)-1-(3,6-dimethyl-2-((S)-3-((2-methylpyrimidin-5-yl)oxy)pyrrolidin-1-yl)-4-oxo-3,4-dihydroquinazolin-8-yl)ethyl)amino)-N-(methylsulfonyl) picolinamide]	
1000 to 5000 nM	250 to 500 nM	Cc1cc([C@@H](C)Nc2ccc(Cl)nc2C(=O)NS(C)(=O)=O)c2nc(N3C[C@@H]4[C@H](C3)[C@H]4n3cc(C)cn3)n(C)c(=O)c2c1 [Compound 491, 6-chloro-3-(((R)-1-(3,6-dimethyl-2-((1R,5S,6S)-6-(4-methyl-1H-pyrazol-1-yl)-3-azabicyclo[3.1.0]hexan-3-yl)-4-oxo-3,4-dihydroquinazolin-8-yl)ethyl)amino)-N-(methylsulfonyl) picolinamide]	
1000 to 5000 nM	250 to 500 nM	Cc1cc([C@@H](C)Nc2ccc(Cl)nc2C(=O)NS(C)(=O)=O)c2nc(N3CC[C@@H](Oc4ccc(F)cn4)C3)n(C)c(=O)c2c1 [Compound 713, 6-chloro-3-(((R)-1-(2-((R)-3-((5-fluoropyridin-2-yl)oxy)pyrrolidin-1-yl)-3,6-dimethyl-4-oxo-3,4-dihydroquinazolin-8-yl)ethyl)amino)-N-(methylsulfonyl) picolinamide]	
1000 to 5000 nM	250 to 500 nM	Cc1cc([C@@H](C)Nc2ccc(Cl)nc2C(=O)NS(C)(=O)=O)c2nc(N3C[C@@H]4[C@H](C3)[C@H]4c3ncc(C)o3)n(C)c(=O)c2c1 [Compound 653, 6-chloro-3-(((R)-1-(3,6-dimethyl-2-((1R,5S,6R)-6-(5-methyloxazol-2-yl)-3-azabicyclo[3.1.0]hexan-3-yl)-4-oxo-3,4-dihydroquinazolin-8-yl)ethyl)amino)-N-(methylsulfonyl) picolinamide]	
1000 to 5000 nM	< 250 nM	Cc1cc([C@@H](C)Nc2ccc(Cl)nc2C(=O)NS(C)(=O)=O)c2nc(N3C[C@@H]4[C@H](C3)[C@H]4c3ccnn3C3CC3)n(C)c(=O)c2c1 [Compound 460, 6-chloro-3-(((R)-1-(2-((1R,5S,6R)-6-(1-cyclopropyl-1H-pyrazol-5-yl)-3-azabicyclo[3.1.0]hexan-3-yl)-3,6-dimethyl-4-oxo-3,4-dihydroquinazolin-8-yl)ethyl)amino)-N-(methylsulfonyl) picolinamide]	
